This note sets out measurements from ChEMBL document CHEMBL5465560, “Selectivity Literature for EUbOPEN Chemogenomic Library” (2024).

For test [1], the target named is Bromodomain-containing protein 4 (Homo sapiens, UniProt O60885). Kind of test: Selectivity interaction (Kinase panel (DSF assay)) EUB0001558a BRD4. For orientation: Differential scanning fluorimetry follows unfolding on heating by fluorescence.
The target of test [2] is Tyrosine-protein kinase receptor Tie-1 (Homo sapiens) (UniProt P35590). Kind of test: Selectivity interaction (KinomeScan (DiscoverX)) EUB0001868a TIE1. The following applies: at 1 µM.
Test [3] addresses T1, Ephrin type-A receptor 1 (Homo sapiens) (UniProt P21709).
T1 sequence (whole entry): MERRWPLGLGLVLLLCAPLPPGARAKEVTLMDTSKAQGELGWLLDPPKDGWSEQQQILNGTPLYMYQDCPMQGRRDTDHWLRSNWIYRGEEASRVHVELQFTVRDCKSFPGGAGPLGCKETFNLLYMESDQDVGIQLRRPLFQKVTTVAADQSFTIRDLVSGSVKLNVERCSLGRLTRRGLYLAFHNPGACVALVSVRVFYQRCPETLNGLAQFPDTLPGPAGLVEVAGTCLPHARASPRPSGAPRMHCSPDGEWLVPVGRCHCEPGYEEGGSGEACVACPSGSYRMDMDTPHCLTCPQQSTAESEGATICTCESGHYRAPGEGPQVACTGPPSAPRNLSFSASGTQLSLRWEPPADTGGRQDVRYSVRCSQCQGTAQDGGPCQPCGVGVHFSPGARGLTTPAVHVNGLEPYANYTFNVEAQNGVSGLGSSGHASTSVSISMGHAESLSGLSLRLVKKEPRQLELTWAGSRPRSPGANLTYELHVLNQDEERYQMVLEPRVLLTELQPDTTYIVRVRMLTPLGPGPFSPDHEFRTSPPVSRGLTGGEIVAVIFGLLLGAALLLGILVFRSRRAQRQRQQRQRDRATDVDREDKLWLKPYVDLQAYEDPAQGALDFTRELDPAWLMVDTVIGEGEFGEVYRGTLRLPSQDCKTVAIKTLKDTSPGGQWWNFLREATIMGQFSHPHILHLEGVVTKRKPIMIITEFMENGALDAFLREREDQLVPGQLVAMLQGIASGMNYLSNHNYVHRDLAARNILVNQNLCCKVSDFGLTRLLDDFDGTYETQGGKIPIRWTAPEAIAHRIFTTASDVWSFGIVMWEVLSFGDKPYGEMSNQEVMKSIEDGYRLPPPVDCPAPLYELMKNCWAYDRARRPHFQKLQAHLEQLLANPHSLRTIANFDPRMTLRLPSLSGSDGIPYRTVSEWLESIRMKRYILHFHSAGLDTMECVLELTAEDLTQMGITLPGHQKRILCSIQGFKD
Briefly: Selectivity interaction (KinomeScan (DiscoverX)) EUB0000666a EPHA1. The following applies: at 10 µM.

Test [4] has as its target Epithelial discoidin domain-containing receptor 1 (Homo sapiens) (UniProt Q08345). Briefly: Selectivity interaction (LanthaScreen Eu Kinase Binding Assay) EUB0001632a DDR1. The following applies: at 10 µM. (TR-FRET usually uses a lanthanide donor and a delayed reading to cut background.)
Test [5] deals with T2, Cyclin-dependent kinase 11A (Homo sapiens) (UniProt Q9UQ88).
T2 sequence (whole entry): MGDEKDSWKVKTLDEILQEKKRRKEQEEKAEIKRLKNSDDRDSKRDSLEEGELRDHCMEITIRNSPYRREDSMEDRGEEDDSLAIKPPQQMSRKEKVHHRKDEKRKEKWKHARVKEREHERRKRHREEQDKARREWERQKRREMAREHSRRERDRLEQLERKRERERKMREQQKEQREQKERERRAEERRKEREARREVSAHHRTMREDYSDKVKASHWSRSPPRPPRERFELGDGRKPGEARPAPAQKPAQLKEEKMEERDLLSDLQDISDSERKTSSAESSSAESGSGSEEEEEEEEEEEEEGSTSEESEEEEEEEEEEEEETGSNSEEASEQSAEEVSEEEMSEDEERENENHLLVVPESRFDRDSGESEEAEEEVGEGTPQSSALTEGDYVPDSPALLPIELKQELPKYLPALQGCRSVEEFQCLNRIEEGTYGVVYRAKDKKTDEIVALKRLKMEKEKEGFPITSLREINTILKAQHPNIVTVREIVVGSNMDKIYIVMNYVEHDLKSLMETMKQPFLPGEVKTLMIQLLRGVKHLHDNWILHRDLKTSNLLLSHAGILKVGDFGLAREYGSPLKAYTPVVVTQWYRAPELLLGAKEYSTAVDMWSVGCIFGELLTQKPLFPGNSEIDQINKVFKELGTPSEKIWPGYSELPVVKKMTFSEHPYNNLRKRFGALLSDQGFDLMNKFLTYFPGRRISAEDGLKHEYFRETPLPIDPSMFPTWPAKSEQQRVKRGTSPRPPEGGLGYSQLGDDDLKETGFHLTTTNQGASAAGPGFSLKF
Briefly: Selectivity interaction (ActivX KiNativ screen (kinase selectivity in THP-1 cell lysates)) EUB0000639a CDK11A. The format is subcellular. The following applies: lysate, at 1 µM.

Test [6] has as its target Mitogen-activated protein kinase 1 (Homo sapiens, UniProt P28482). Kind of test: Selectivity interaction (KinomeScan (DiscoverX)) EUB0000229b MAPK1. The following applies: at 10 µM.
Test [7] addresses T3, Prostaglandin G/H synthase 2 (Homo sapiens) (UniProt P35354).
T3 sequence (whole entry): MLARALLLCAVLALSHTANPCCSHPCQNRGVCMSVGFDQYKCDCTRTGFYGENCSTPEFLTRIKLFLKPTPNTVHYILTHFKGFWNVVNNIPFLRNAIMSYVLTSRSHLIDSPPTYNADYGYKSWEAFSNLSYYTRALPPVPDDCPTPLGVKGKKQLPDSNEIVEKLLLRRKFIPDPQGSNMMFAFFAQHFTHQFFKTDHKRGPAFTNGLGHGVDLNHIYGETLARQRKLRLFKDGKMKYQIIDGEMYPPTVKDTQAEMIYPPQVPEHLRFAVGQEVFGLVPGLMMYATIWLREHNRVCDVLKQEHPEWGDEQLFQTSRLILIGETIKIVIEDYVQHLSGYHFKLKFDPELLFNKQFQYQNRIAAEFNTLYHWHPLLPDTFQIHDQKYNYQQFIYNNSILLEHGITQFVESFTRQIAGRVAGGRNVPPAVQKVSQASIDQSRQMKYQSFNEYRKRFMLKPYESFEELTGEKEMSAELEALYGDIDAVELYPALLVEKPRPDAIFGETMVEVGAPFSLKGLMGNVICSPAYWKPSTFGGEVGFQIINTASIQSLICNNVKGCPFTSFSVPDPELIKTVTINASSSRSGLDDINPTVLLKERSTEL
Briefly: Selectivity interaction (Safety Panel 44tm (Eurofins)) EUB0000162b PTGS2. Conditions: at 10 µM.

Mitogen-activated protein kinase 1, sequence (P28482 whole entry): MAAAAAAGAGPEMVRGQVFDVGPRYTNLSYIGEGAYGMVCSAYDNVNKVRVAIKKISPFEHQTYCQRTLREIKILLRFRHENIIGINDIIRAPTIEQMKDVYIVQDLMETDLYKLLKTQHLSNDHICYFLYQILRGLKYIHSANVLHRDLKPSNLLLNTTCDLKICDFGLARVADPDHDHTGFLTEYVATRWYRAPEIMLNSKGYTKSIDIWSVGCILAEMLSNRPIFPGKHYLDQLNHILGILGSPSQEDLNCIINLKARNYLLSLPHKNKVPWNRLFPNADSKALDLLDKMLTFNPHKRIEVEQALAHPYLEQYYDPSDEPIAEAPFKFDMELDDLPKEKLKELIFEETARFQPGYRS
Epithelial discoidin domain-containing receptor 1 (Homo sapiens), sequence (Q08345 whole entry, the tested form may be a part): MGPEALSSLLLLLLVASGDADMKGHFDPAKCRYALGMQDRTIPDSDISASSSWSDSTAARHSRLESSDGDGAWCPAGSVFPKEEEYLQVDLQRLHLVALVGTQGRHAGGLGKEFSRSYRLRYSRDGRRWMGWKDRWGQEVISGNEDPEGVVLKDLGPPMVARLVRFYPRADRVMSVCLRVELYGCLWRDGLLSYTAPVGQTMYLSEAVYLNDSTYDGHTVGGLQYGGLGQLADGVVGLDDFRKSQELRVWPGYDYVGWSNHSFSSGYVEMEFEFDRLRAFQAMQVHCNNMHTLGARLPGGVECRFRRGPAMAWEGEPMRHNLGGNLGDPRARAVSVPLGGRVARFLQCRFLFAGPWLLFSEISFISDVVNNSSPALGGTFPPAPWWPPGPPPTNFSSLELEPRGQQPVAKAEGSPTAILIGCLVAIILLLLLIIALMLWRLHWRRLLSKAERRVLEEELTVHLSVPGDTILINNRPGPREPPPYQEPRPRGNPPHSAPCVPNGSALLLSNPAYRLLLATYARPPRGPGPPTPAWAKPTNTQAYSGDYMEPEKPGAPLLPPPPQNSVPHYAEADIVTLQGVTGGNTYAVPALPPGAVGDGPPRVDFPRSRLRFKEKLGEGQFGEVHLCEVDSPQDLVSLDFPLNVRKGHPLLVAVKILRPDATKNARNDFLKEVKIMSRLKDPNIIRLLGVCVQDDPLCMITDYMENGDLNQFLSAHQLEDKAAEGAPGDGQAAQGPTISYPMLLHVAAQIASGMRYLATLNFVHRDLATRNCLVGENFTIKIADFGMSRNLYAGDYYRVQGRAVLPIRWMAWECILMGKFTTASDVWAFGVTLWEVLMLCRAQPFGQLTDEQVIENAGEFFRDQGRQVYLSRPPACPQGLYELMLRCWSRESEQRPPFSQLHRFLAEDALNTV
Tyrosine-protein kinase receptor Tie-1 (Homo sapiens), sequence (P35590 whole entry): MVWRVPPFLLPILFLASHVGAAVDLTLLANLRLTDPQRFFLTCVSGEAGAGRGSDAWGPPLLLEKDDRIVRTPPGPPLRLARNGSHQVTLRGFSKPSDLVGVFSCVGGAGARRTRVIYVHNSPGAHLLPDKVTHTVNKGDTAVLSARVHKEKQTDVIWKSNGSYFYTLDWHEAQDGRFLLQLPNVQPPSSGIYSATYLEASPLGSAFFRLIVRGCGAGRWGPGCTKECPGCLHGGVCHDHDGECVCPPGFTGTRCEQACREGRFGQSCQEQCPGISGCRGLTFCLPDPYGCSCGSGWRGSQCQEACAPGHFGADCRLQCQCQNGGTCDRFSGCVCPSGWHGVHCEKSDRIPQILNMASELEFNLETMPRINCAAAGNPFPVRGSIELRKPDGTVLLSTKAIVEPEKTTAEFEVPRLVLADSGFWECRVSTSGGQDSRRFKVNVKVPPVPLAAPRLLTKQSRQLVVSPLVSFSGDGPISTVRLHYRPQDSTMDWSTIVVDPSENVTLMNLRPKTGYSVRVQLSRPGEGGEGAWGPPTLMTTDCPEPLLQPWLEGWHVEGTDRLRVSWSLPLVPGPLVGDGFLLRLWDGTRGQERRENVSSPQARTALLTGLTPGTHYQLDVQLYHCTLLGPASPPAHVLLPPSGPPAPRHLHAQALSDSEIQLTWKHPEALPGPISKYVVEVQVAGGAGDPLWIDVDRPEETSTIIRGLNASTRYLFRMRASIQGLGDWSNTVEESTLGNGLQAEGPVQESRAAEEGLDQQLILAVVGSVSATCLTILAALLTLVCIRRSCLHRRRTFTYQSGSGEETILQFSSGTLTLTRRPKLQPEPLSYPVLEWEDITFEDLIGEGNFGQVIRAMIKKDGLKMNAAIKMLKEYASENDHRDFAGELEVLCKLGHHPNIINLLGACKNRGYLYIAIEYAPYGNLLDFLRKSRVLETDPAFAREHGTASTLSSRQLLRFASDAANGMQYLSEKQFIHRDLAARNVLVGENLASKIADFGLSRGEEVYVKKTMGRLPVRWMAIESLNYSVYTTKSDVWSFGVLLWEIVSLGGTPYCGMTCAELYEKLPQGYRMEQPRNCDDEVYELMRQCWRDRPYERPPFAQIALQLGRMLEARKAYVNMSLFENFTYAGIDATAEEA

Molecule `CC(C)(O)[C@H](F)CN1Cc2cc(NC(=O)c3cnn4cccnc34)c(N3CCOCC3)cc2C1=O` gave a dTM in test [1] of 0.4 K.
In the case of `Cc1cc(-c2ccnc(Nc3cnn(C)c3)n2)ccc1CNC(=O)N1CC(OC(C)C)C1`, the % of control in test [2] was 46%.
Consider `O=C(NOC[C@H](O)CO)c1ccc(F)c(F)c1Nc1ccc(I)cc1F`, for which the % of control in test [3] amounted to 91%.
`Cn1cc(-n2cnc3c(NCc4nc5cc(Cl)c(Cl)cc5[nH]4)nc(N4CCOCC4)nc32)cn1` returned a % of inhibition in test [4] of 0.322%.
Consider `CC[C@@H]1[C@H](F)C(=O)N[C@@H]1COc1nccc2cc(C(N)=O)c(OC)cc12` [ZIMLOVISERTIB], for which the % of inhibition in test [5] was 6.7%.
Take `COc1cc(N(C)c2ccnc3ccc(C(F)(F)F)cc23)cc(OC)c1OC`: the % binding in test [6] came out at 97%.
In test [7], `CN(C)C(=O)Cn1cc(-c2ccc(-c3cncc4ccccc34)cc2)cn1` yielded a % of control of 81%.
